Patent US10947261B2, “Tetravalent platinum compound-bicyclic double-bond-containing amphiphilic polymer prodrug, nano-micelle, preparation method and application thereof” (ANHUI UNIVERSITY, priority 2017, dated 2021)

Tested on: MCF-7, A549 and HepG2 cells
Assay: Cellular uptake of drug-loaded micelles (confocal laser, flow cytometer)
Type: cell-based, human
Details: doxorubicin 16 μg/mL, 4 h
Experimental: Cell culture: human breast cancer cells (MCF-7), human lung adenocarcinoma cells (A549) and human hepatoma cells (HepG2) were respectively added to a standard 6-well plate, and about 10^5 cells are in each well. After overnight culture, the culture medium was removed, and 1.8 mL of fresh medium was added to prepare three cell culture solutions.
Drug treatment: 0.2 mL of each of the above two drugs (the final concentration of doxorubicin was 16 μg/mL) were added to the three cell culture solutions, respectively, and the cells were cultured for 4 h; subsequently, the culture medium was removed, and the cells were washed twice with PBS, fixed with 4% paraformaldehyde solution (about 5 min), and then washed twice with PBS; then, the nuclei of cells were stained with nuclear staining reagent (5 min), and the cells were washed twice with PBS.

In the case of `COc1cccc2c1C(=O)c1c(O)c3c(c(O)c1C2=O)C[C@@](O)(C(=O)CO)C[C@@H]3O[C@H]1C[C@H](N)[C@H](O)[C@H](C)O1` [doxorubicin], the cellular uptake was “cellular uptake can effectively occur”.
